What all share (assay): NCI tumour cell line growth inhibition, 48 h
Assay [1] has as its system 786-0 renal.
The subject of assay [2] is ACHN renal.
In assay [3] the test system is COLO 205 colon.
Assay [4] concerns DU-145 prostate.
Assay [5] concerns HCT-15 colon.
For assay [6], the system named is HT29 colon.
Assay [7] relates to IGROV1 ovarian.
Assay [8] has as its system MOLT-4 leukemia.
The subject of assay [9] is NCI-H226 lung.
In assay [10] the test system is NCI-H23 lung.
For assay [11], the system named is NCI-H522 lung.
In assay [12] the test system is NCI/ADR-RES ovarian.
Assay [13] has as its system OVCAR-4 ovarian.
The subject of assay [14] is OVCAR-8 ovarian.
Assay [15] concerns RPMI-8226 leukemia.
In assay [16] the test system is RXF 393 renal.
The test system of assay [17] is SR leukemia.
Assay [18] deals with TK-10 renal.
Assay [19] concerns UACC-257 melanoma.

Molecules are shown by their SMILES.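 1) Cells in 96-well plates. 2) Compound, 48 h, 5 concentrations. 3) Linear interpolation between surrounding doses. 4) Unreached endpoint = highest concentration. The concentration for full growth arrest is given as TGI.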

Turning to `COc1cc(NC(C)c2ccc3c(c2)OCCO3)cc(OC)c1OC` (stereo unspecified), the TGI in [1] was greater than 100 µM; in assay [2] it was greater than 100 µM; in assay [3] it was 71.8 µM; in assay [4] it was greater than 100 µM; in assay [5], greater than 100 µM; in [6], greater than 100 µM. The TGI is greater than 100 µM in assay [7]; greater than 100 µM in assay [8]; 75.6 µM in assay [9]; 64.7 µM in [10]; 48.9 µM in assay [11]; 91.4 µM in assay [12]. Further, the TGI in assay [13] is greater than 100 µM; in assay [14] it was greater than 100 µM; in assay [15], 84.6 µM; in assay [16] it was greater than 100 µM; in assay [17] it was greater than 100 µM; in assay [18] it was greater than 100 µM. In [19], this compound gave a TGI greater than 100 µM.

Take `CC1=NN(c2nc(N)nc(/C(C#N)=C/c3ccccc3O)n2)C(C)(C)C1`: the TGI in assay [1] was 29.1 µM; in assay [2], 34.5 µM; in assay [3] it was 31.5 µM; in assay [4], 32 µM; in assay [5] it was 38.6 µM; in [6] it was 42.6 µM. Besides, the TGI in assay [7] is 45.5 µM; in [8], greater than 100 µM; in assay [9], 37.8 µM; in assay [10], 34.5 µM; in [11], 36 µM; in assay [12] it was 47 µM. Besides, the TGI in [13] was 34.2 µM; in [14], 61.6 µM; in [15], 36.2 µM; in assay [16], 39.5 µM; in assay [17], greater than 100 µM; in assay [18], 58.4 µM. In addition, in assay [19], the TGI came out at 38.5 µM.

On to `Cn1c(=O)c2c3ccccc3n(C)c2n(C)c1=O`, for which the TGI in assay [1], in assay [2], in assay [3], in [4], in assay [5] and in [6] was greater than 100 µM each time. The TGI in assay [7], in assay [8], in [9], in assay [10], in assay [11] and in [12] was greater than 100 µM throughout. For the same compound, the TGI in [13], in assay [14], in [15], in [16], in [17] and in [18] was greater than 100 µM in each case. Further, the TGI in [19] was greater than 100 µM.

For `CN(C)c1ccc(C2CC(c3ccc4ccccc4c3O)=NN2)cc1` (stereo unspecified), the TGI is 59.7 µM in assay [1]; greater than 100 µM in assay [2]; 51.5 µM in assay [3]; greater than 100 µM in assay [4]; greater than 100 µM in [5]; greater than 100 µM in [6]. The TGI in assay [7] was greater than 100 µM; in assay [8] it was 92 µM; in [9], greater than 100 µM; in assay [10], greater than 100 µM; in assay [11] it was 85.5 µM; in assay [12], greater than 100 µM. The TGI in [13] was greater than 100 µM; in assay [14], greater than 100 µM; in assay [15] it was greater than 100 µM; in assay [16] it was greater than 100 µM; in [17] it was 51.7 µM; in [18], greater than 100 µM. The TGI in [19] was greater than 100 µM.

For the compound `O=c1ccn([C@@H]2C[C@H]2CO)c(=O)[nH]1`, the TGI in assay [1], in [2], in assay [3], in [4], in assay [5] and in assay [6] was greater than 100 µM each time. In addition, the TGI in assay [7], in assay [8], in assay [9], in assay [10], in assay [11] and in [12] was greater than 100 µM throughout. For the same compound, the TGI in assay [13], in assay [14], in [15], in assay [16], in assay [17] and in assay [18] was greater than 100 µM throughout. In assay [19], this compound returned a TGI greater than 100 µM.

On to `C=C1C[C@@H]2CC[C@@]34CC5O[C@H]6C(O[C@H]7CC[C@H](CC(=O)O[C@@H]8[C@@H](C)[C@@H]9O[C@@H]%10C[C@]%11(C[C@@H]%12O[C@]%13(C[C@H](C)[C@@H]%14O[C@@H]%15CC(C(O)CO)O[C@@H]%15C[C@@H]%14O%13)C[C@H](C)[C@@H]%12O%11)O[C@@H]%10C[C@@H]9O[C@H]8CC8O[C@@H](CC[C@@H]1O2)C[C@@H](C)C8(O)CO)O[C@@H]7[C@@H]6O3)[C@H]5O4` (stereo partly specified), for which the TGI in assay [1], in assay [2], in assay [3], in [4], in assay [5] and in assay [7] was greater than 1 µM in each case. The TGI was greater than 1 µM in assay [8]; greater than 1 µM in assay [9]; greater than 1 µM in assay [10]; 0.614 µM in [11]; greater than 1 µM in assay [12]; greater than 1 µM in [13]. For the same compound, the TGI in assay [14], in assay [15], in assay [16], in assay [17], in assay [18] and in assay [19] was greater than 1 µM throughout.

Consider `COc1ccccc1CCN1CCN(CCCc2ccccc2)CC1`, for which the TGI is greater than 100 µM in assay [1]; greater than 100 µM in assay [2]; 76 µM in assay [3]; greater than 100 µM in assay [4]; greater than 100 µM in [5]; greater than 100 µM in [6]. Further, the TGI in assay [7], in assay [8], in assay [9], in assay [11], in [12] and in assay [13] was greater than 100 µM each time. In addition, the TGI in [14], in assay [15], in assay [16], in assay [17], in [18] and in [19] was greater than 100 µM in each case.

The record behind these values is PubChem BioAssay (NCI).
